Source: patent publication US9974305B2, “Fungicidal or bactericidal composition, and method for controlling diseases” (NISSAN CHEMICAL INDUSTRIES, LTD., priority 2014, dated 2018)
Where two headings read alike, the source gives them in different places.

How the values were obtained:
Assay type in all cases: in vivo
[1] = system: cucumber gray mold fungus (Botrytis cinerea); test: Preventive test against gray mold on cucumber cotyledon leaves, spray treatment, preventive value and Colby expected value (Test Examples 1-4); conditions: single compound; for pest or weed control at 3 ppm / pest or weed control at 1 ppm: Botrytis cinerea, 72 h; for pest or weed control at 3 ppm: read-out: Preventive value
Method in brief: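 Cucumber (Sagami-hanjiro) cotyledons sprayed with water-diluted formulations of ingredient A, B or mixtures, air-dried, detached, and drop-inoculated with Botrytis cinerea conidia mixed 1:1 with PDA. After 3 days at 20 °C, lesion area gave preventive value versus untreated; Colby expected value E=X+Y−XY/100 computed for mixtures.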

[2] = system: wheat glume blotch (Leptosphaeria nodorum); test: Efficacy test on wheat glume blotch, seed treatment (Test Example 9); conditions: single compound
Method: An agent comprising the following compound listed in Table 2 (active ingredient A) and the compound listed in Table 11 (H35: active ingredient B) as active ingredients, was prepared in accordance with the above Formulation Example. This agent was diluted with water to a predetermined concentration to obtain a test solution. A predetermined amount of the test solution was put in a glass bottle of 5 ml, and 0.5 g (approximately 15 grains) of wheat seeds (variety: Haruyutaka) were added, stirred and air-dried. In each pot with a diameter of 7 cm having soil put therein, 3 grains were seeded and grown for 14 days. To seedlings of the wheat (variety: Haruyutaka) grown to a 1-leaf stage, a spore suspension (100,000 cfu/ml) of wheat glume blotch (Leptosphaeria nodorum) was spray-inoculated, and the pot was placed in a moist chamber set in temperature of 20° C. and humidity more than 95% RH for 48 hours. After placing the pot for 7 days in a glass greenhouse, the ratio of the formed lesion area occupying the inoculated leaves was measured, and the preventive value was calculated in accordance with the following formula. Preventive value=[1−(treated plot lesion area ratio/untreated plot lesion area ratio)]×100
(§1) Further, from the preventive value at each agent concentration, synergy was calculated by using the Colby method (Colby S. R. 1976, Weeds 15, 20-22).

[3] = system: wheat powdery mildew (Blumeria graminis); test: Efficacy test on wheat powdery mildew, seed treatment (Test Example 10); conditions: wheat (Norin 61)
Method: An agent comprising the following compound listed in Table 2 (active ingredient A) and the compound listed in Table 11 (H35: active ingredient B) as active ingredients, was prepared in accordance with the above Formulation Example. This agent was diluted with water to a predetermined concentration to obtain a test solution. A predetermined amount of test solution was put in a glass bottle of 5 ml, and 0.5 g (approximately 15 grains) of wheat seeds (variety: Norin 61) were added, stirred and air-dried. In each pot with a diameter of 7 cm and having soil put therein, 3 grains were seeded and grown for 14 days. To the wheat seedlings grown to the 1-leaf stage, a spore suspension (100,000 cfu/ml) of wheat powdery mildew (Blumeria graminis) was spray-inoculated. After placing the pot in a glass greenhouse for 10 days, the ratio of the formed lesion area occupying the inoculated leaves was measured, and the preventive value was calculated in accordance with the following formula. Preventive value=[1−(treated plot lesion area ratio/untreated plot lesion area ratio)]×100
as §1

[4] = system: cucumber downy mildew (Pseudoperenospora cubensis); test: Efficacy test on cucumber downy mildew, spray treatment and prevention test (Test Example 7); conditions: single compound 250 ppm; lesion area ratio
Method: An agent comprising the following compound listed in Table 2 (active ingredient A) and the compound listed in Table 6 (C40: active ingredient B) as active ingredients, was prepared in accordance with the above Formulation Example. This agent was diluted with water to a predetermined concentration to obtain a test solution. Then, to seedlings of cucumber (variety: Sagami-hanjiro) at 1.5-leaf stage grown in a pot with a diameter of 7 cm, the test solution was applied by a spray gun in an amount of 10 ml per pot, for treatment. One day after the treatment, a spore suspension (2×100,000 cfu/ml) of cucumber downy mildew (Pseudoperenospora cubensis), was spray-inoculated, and the pot was placed in a moist chamber set in temperature of 20° C. and humidity more than 95% RH for 24 hours. After placing the pot in a glass greenhouse for 6 days, the ratio of the formed lesion area occupying the inoculated leaves was measured, and the preventive value was calculated in accordance with the following formula. Preventive value=[1−(treated plot lesion area ratio/untreated plot lesion area ratio)]×100
Further, from the preventive value for each agent concentration, synergy was calculated by using the Colby method (Colby S. R. 1976, Weeds 15, 20-22).

[5] = system: cucumber powdery mildew (Sphaerotheca cucurbitae); test: Efficacy test on cucumber powdery mildew, irrigation treatment (Test Example 11); conditions: concentration 500 ppm, cucumber (Sagami-hanjiro)
Method: An agent comprising the following compound listed in Table 2 (active ingredient A) and the compound listed in Table 6 (C18: active ingredient B), was prepared in accordance with the above Formulation Example. This agent was diluted with water to a predetermined concentration to obtain a test solution. 5 ml of the test solution was irrigated by a pipette to the close-to-ground part of cucumber seedlings at the 1 leaf stage (variety: Sagami-hanjiro), grown in a styrol cup with a diameter of 10 cm, and next day, the seedlings were transplanted to the to 4 cun pots. Then, after cultivation for 7 days in a glass greenhouse, to the first true leaf of the cucumber, a spore suspension (100,000 cfu/ml) of cucumber powdery mildew (Sphaerotheca cucurbitae) was inoculated by spraying. After 10 days in a glass greenhouse, the ratio of the formed lesion area occupying the inoculated leaves was measured, and the preventive value was calculated in accordance with the following formula. Preventive value=[1−(treated plot lesion area ratio/untreated plot lesion area ratio)]×100
as §1

[6] = processing amount 5 mg/1 g seed
[7] = processing amount 10 mg/1 g seed

SMILES	Preventive value ([1]; Test Example 1, 3 ppm spray)	Preventive value ([1]; Test Example 3, 3 ppm spray)	Preventive value ([1]; Test Example 4, 3 ppm spray)	Preventive value [2, 6]	Preventive value [2, 7]	Preventive value [3, 6]	Preventive value [3, 7]	Preventive value [4]	Preventive value [5]	Preventive value ([1]; Test Example 1, 1 ppm spray, cucumber cotyledon, 3 days at 20° C.)	Preventive value ([1]; Test Example 3, 1 ppm spray)	Preventive value ([1]; Test Example 4, 1 ppm spray)	pest or weed control at 3 ppm ([1]; Test Example 1, 3 ppm spray) [%]	pest or weed control at 3 ppm ([1]; Test Example 3, 3 ppm spray) [%]	pest or weed control at 3 ppm ([1]; Test Example 4, 3 ppm spray) [%]	pest or weed control at 1 ppm ([1]; Test Example 2, 1 ppm spray) [%]	pest or weed control at 1 ppm ([1]; Test Example 3, 1 ppm spray) [%]	pest or weed control at 1 ppm ([1]; Test Example 4, 1 ppm spray) [%]
CC(C)O/N=C(/CNC(=O)c1ccccc1C(F)(F)F)c1ncc(Cl)cc1Cl [Compound No. 4]	75	70	60	70	75	97	99	0	60	–	–	–	–	–	–	–	–	–
COc1c(Cl)cnc(C(CNC(=O)c2ccccc2C(F)(F)F)=NOC(C)C)c1Cl [Compound No. 9]	–	–	–	75	77	100	100	0	95	75	70	72	–	–	–	–	–	–
CC#Cc1cnc(/C(CNC(=O)c2cn(C)nc2C(F)F)=N\OC(C)C)c(Cl)c1 [Compound No. 20, (Z)—N-[2-[3-chloro-5-(1-propynyl)pyridin-2-yl]-2-(isopropoxyimino)ethyl]-3-difluoromethyl-1-methyl-1H-pyrazole-4-carboxamide]	–	–	–	90	99	100	100	5	100	–	–	–	63	65	65	–	–	–
CC(C)O/N=C(/CNC(=O)c1cn(C)nc1C(F)F)c1ncc(C#CC2CC2)cc1Cl [Compound No. 25, (Z)—N-[2-[3-chloro-5-(cyclopropylethynyl)pyridin-2-yl]-2-(isopropoxyimino)ethyl]-3-difluoromethyl-1-methyl-1H-pyrazole-4-carboxamide]	–	–	–	83	95	100	100	5	100	–	–	–	–	–	–	63	75	75
CC(C)ON=C(CNC(=O)c1ccccc1C(F)(F)F)c1ncc(C(F)(F)F)cc1Cl [compound 14]	75	75	65	41	82	97	100	0	22.5	–	–	–	–	–	–	–	–	–
CON=C(CNC(=O)c1cn(C)nc1C(F)F)c1ncc(C#CC(C)(C)C)cc1Cl [compound 28]	75	77	75	77	88	100	100	5	75	–	–	–	–	–	–	–	–	–
